Measured values: PubChem BioAssay (NCI)
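All cell lines were grown in 96-well plates and treated with compound for 48 hours. GI50 marks 50% less growth. The concentration for full growth arrest is given as TGI.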

Tests used:
Assay in all cases: inhibition of tumour cell growth, NCI panel, 48 h
HL-60(TB) leukemia = system: HL-60(TB) leukemia
M14 melanoma = system: M14 melanoma
NCI-H522 lung = system: NCI-H522 lung
SK-MEL-5 melanoma = system: SK-MEL-5 melanoma
A498 renal = system: A498 renal
SW-620 colon = system: SW-620 colon
HOP-62 NSCLC = system: HOP-62 NSCLC
OVCAR-4 ovarian = system: OVCAR-4 ovarian
UO-31 renal = system: UO-31 renal
SR leukemia = system: SR leukemia

| Structure (SMILES) | TGI (HL-60(TB) leukemia) | TGI (M14 melanoma) | TGI (NCI-H522 lung) | TGI (SK-MEL-5 melanoma) | TGI (A498 renal) | TGI (SW-620 colon) | TGI (HOP-62 NSCLC) | TGI (OVCAR-4 ovarian) | TGI (UO-31 renal) | TGI (SR leukemia) | GI50 (HL-60(TB) leukemia) | GI50 (M14 melanoma) | GI50 (SK-MEL-5 melanoma) | GI50 (A498 renal) | GI50 (SW-620 colon) | GI50 (SR leukemia) | GI50 (HOP-62 NSCLC) | GI50 (OVCAR-4 ovarian) | GI50 (UO-31 renal) |
| --- | --- | --- | --- | --- | --- | --- | --- | --- | --- | --- | --- | --- | --- | --- | --- | --- | --- | --- | --- |
| CC(C)N1CC2CC(CN(C(=O)c3ccccc3)C2)C1 | > 100 µM | > 100 µM | > 100 µM | > 100 µM | > 100 µM | > 100 µM | > 100 µM | > 100 µM | > 100 µM |  |  |  |  |  |  |  |  |  |  |
| COc1cccc2c1C(=O)c1c(O)c3c(c(O)c1C2=O)C[C@H](O)C[C@@H]3OC1CC(N)C(O)C(C)O1 (stereo not given in full) |  |  | 5.86 µM | 2.22 µM | 4.5 µM |  | 10.5 µM | 21.4 µM | 19.7 µM | 0.229 µM |  |  |  |  |  |  |  |  |  |
| CC(C)c1cccc(C(C)C)c1NC(=O)/C(CC(=O)CC(c1ccccc1)c1c(O)c2ccccc2oc1=O)=N/O (stereo not given) | > 100 µM | > 100 µM | > 100 µM | > 100 µM | > 100 µM | > 100 µM | > 100 µM | > 100 µM | > 100 µM |  |  |  |  |  |  |  |  |  |  |
| COc1ccc2nc(/C(N)=C\C#N)ccc2c1 | 46.5 µM | > 100 µM | > 100 µM | > 100 µM |  | > 100 µM | > 100 µM | > 100 µM | > 100 µM | > 100 µM |  |  |  |  |  |  |  |  |  |
| CCOC(=O)C1(C#N)C(c2ccccc2)CC(O)(c2ccc(Cl)cc2)C(C(=O)c2ccc(Cl)cc2)C1c1ccccc1 (stereo not given) | > 100 µM | > 100 µM | > 100 µM | > 100 µM |  | > 100 µM | > 100 µM | > 100 µM | > 100 µM | > 100 µM |  |  |  |  |  |  |  |  |  |
| N#C/C(=C/n1c(=S)[nH]c2ccc([N+](=O)[O-])cc21)C(N)=O | > 100 µM | > 100 µM |  | > 100 µM |  | > 100 µM | > 100 µM | > 100 µM | > 100 µM | > 100 µM |  |  |  |  |  |  |  |  |  |
| S=C(N/N=C\C(=N/NC(=S)N1CCCCC1)c1ccccc1)N1CCCCC1 |  | 3.61 µM | 3.77 µM | 3.32 µM | 3.18 µM | 3.83 µM | 5.83 µM | 3.43 µM | 3.39 µM |  |  |  |  |  |  |  |  |  |  |
| Cc1cc2c(O)c(c1)CN(CC(=O)O)Cc1cc(C)cc(c1O)CN(CC(=O)O)Cc1cc(C)cc(c1O)CN(CC(=O)O)C2 |  | > 100 µM | > 100 µM | > 100 µM | > 100 µM | > 100 µM | > 100 µM | > 100 µM | > 100 µM | > 100 µM |  |  |  |  |  |  |  |  |  |
| CN1C(=O)N(C)C(O)C(Cl)(Br)C1=O (stereo not given) | > 100 µM | > 100 µM | > 100 µM | > 100 µM | > 100 µM | > 100 µM |  |  | > 100 µM | > 100 µM |  |  |  |  |  |  |  |  |  |
| Cc1cc2ncn(C3CCCCO3)c2cc1C (stereo not given) | > 100 µM | > 100 µM | > 100 µM | > 100 µM |  | > 100 µM | > 100 µM | > 100 µM | 75.1 µM |  |  |  |  |  |  |  |  |  |  |
| CN(C)CC1CCC/C(=C\c2ccc(OC(=O)c3ccc(Cl)cc3)cc2)C1=O (stereo not given) | 11.9 µM | 3.27 µM |  | 12.1 µM | 22.6 µM | 2.71 µM | 12.6 µM | 8.94 µM | 2.97 µM | > 100 µM |  |  |  |  |  |  |  |  |  |
| CSc1cc(=O)n2c3ccccc3c3ccnc1c32 | > 100 µM |  | > 100 µM | > 100 µM | > 100 µM | > 100 µM | > 100 µM | > 100 µM | > 100 µM |  |  |  |  |  |  |  |  |  |  |
| Cc1ccc(C(=O)N/N=C(\N=Nc2ccccc2)c2ccc(N(C)C)cc2)cc1 | > 100 µM | > 100 µM | > 100 µM | > 100 µM |  | > 100 µM |  | > 100 µM | > 100 µM | > 100 µM |  |  |  |  |  |  |  |  |  |
| CC1=NN(c2nc(N)nc(-c3sccc3N)n2)C(C)(C)C1 | > 100 µM | > 100 µM | > 100 µM | > 100 µM | > 100 µM | > 100 µM | > 100 µM | > 100 µM | > 100 µM |  |  |  |  |  |  |  |  |  |  |
| O=c1[nH]c2nc3ccccc3nc2[nH]c1=O | > 100 µM | > 100 µM | > 100 µM | > 100 µM |  | > 100 µM | > 100 µM | > 100 µM | > 100 µM | > 100 µM |  |  |  |  |  |  |  |  |  |
| COc1ccc(C2C3=C(COC3=O)Oc3cc4c(cc32)OCO4)c(OC)c1 (stereo not given) | 39.9 µM | > 100 µM |  | > 100 µM | > 100 µM | > 100 µM | > 100 µM | > 100 µM | > 100 µM | > 100 µM |  |  |  |  |  |  |  |  |  |
| CC(C)(C)OC(=O)NC(Cc1ccccc1)NC(=O)NC(=O)OCc1ccccc1 (stereo not given) |  | > 100 µM | > 100 µM | > 100 µM |  | > 100 µM | > 100 µM |  | > 100 µM | > 100 µM |  |  |  |  |  |  |  |  |  |
| O=c1nc2c(c(-c3ccc(Br)cc3)[nH]1)COC/C2=C\c1ccc(Br)cc1 | > 50 µM | > 50 µM | > 50 µM | > 50 µM | > 50 µM | > 50 µM | > 50 µM | > 50 µM | > 50 µM |  |  |  |  |  |  |  |  |  |  |
| O=C1N=C2SC(=S)NC(=S)N2NC12c1ccccc1-c1ccccc12 | > 10 µM | > 10 µM |  | > 10 µM | 6.58 µM | > 10 µM | > 10 µM | > 10 µM | > 10 µM | > 10 µM |  |  |  |  |  |  |  |  |  |
| COc1ccc(-c2c3c(n(C4OC(CO)C(O)C(O)C4O)c(=S)c2C#N)CCC3)cc1 (stereo not given) | > 100 µM | > 100 µM |  | 38.8 µM |  | > 100 µM | > 100 µM | > 100 µM | > 100 µM | > 100 µM |  |  |  |  |  |  |  |  |  |
| CC(C)C(CC(=O)OCC(CO)OC(=O)CC(C(C)C)C(C)C)C(C)C (stereo not given) |  | 29.5 µM | 25.6 µM | 24.7 µM | 29.8 µM | 26.8 µM | 23 µM | 33.4 µM | 30.1 µM | > 100 µM |  |  |  |  |  |  |  |  |  |
| COc1cc(-c2n/c(=C\c3c(O)[nH]c4ccc(Cl)cc34)cc3c2=Nc2ccccc2-3)ccc1F | 34.7 µM | 3.48 µM |  | 10.8 µM | 15.2 µM | 2.94 µM | 2.52 µM | 3.48 µM | 2.5 µM | 4.76 µM | 10.9 µM | 1.89 µM | 2.84 µM | 3.16 µM | 1.33 µM | 1.08 µM | 1.17 µM | 1.74 µM | 1.12 µM |
| COc1ccc(Nc2nc(N)c(C(=O)c3c[nH]c4ccccc34)s2)cc1 | 14 µM | 16.4 µM |  | 14.4 µM | 16.3 µM | > 100 µM | > 71.4 µM | > 100 µM | > 100 µM | 0.796 µM |  |  |  |  |  |  |  |  |  |
